The target in experiment [1] is T1, NHE3 (Homo sapiens, UniProt P48764).
T1 construct: expressed in transfected cells
T1 sequence (P48764 26-834): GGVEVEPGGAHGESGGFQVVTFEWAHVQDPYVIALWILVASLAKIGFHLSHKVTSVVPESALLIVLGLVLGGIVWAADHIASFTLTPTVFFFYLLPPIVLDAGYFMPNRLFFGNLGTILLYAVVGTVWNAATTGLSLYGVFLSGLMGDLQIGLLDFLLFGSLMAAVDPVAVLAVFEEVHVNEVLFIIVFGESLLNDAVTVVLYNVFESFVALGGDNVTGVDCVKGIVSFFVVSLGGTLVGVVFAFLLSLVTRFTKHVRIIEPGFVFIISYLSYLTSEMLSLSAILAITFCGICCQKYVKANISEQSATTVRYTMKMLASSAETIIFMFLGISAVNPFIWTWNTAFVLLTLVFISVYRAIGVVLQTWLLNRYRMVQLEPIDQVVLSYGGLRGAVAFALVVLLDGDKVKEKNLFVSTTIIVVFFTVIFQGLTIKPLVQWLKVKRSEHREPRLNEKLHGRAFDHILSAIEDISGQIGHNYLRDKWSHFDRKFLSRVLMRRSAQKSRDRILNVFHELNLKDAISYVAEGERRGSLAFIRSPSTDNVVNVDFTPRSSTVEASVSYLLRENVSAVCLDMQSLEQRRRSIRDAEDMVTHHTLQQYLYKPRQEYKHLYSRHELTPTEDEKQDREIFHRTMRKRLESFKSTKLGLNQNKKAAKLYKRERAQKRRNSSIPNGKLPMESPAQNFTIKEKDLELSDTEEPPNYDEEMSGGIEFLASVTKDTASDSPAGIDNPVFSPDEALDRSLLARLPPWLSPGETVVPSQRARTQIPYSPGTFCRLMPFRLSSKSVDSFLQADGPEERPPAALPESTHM
T1 sequence (Q99653 2-195 partner limits assumed): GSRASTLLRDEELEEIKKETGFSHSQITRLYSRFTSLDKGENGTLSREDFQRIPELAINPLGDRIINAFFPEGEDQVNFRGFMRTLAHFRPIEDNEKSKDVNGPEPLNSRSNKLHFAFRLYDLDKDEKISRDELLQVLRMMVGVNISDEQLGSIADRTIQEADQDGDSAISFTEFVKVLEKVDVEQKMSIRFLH
The experiment in a line: Cell-based assay of NHE-3 activity (pre-incubation inhibition), human. Particulars: human Preincubation. The essentials: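 Activity read as initial rate of BCECF fluorescence ratio change per minute (ex 439/505, em 538 nm) following NH4Cl prepulse acid loading. Compound (0–30 μM) present during 10 min Na+-free acidification at room temperature; cells were PS120 fibroblasts stably co-expressing human NHE3 and NHERF2.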

In experiment [2] the test system is human duodenum monolayer culture. The experiment in a line: Sustained inhibition of apical acid secretion in human organoid monolayer cell cultures (duodenum). Particulars: Homo sapiens. Type of experiment: cell-based. How it is done: Basal media (BM) consisted of advanced DMEM/F12 containing 10 mM HEPES Invitrogen, 15630-080), 1:100 Glutamax (Invitrogen, 35050-061), and 1:100 penicillin/streptomycin (Invitrogen, 15140-122). Supplemented basal media (SBM) contained 1:100 N2 (Invitrogen, 17502-048), 1:50 B27 (Invitrogen, 12587-010), 1 mM N-acetylcysteine (Sigma, A9165), and 10 nM [Leu15]-gastrin I (Sigma, G9145). Growth factors used included 50 ng per mL mouse EGF (Peprotech, 315-09), 100 ng per mL mouse noggin (Peprotech, 250-38), 500 ng per mL human R-spondin 1 (R&D, 4645-RS), 100 ng per mL mouse Wnt-3a (R&D, 1324-WN), 20 μM. Y-27632 (Tocris, 1254), 10 mM nicotinamide (Sigma, N0636), 500 nM A83-01 (Tocris, 2939), 10 μM SB202190 (Tocris, 1264). Transwells were 0.4 μm pore polyester membrane 24-well Transwell inserts (Corning). Cultures were incubated at 37° C. in 5% CO2.
Each human ileum monolayer culture well was washed twice with fresh SBM on the apical side on day 6 before compound dosing. All compound stocks were 10 mM dissolved in DMSO. Each compound stock was individually mixed with fresh SBM to reach final compound concentration 1 μM and dosed only on the apical side of the monolayer (total volume 200 μl). DMSO at the equivalent concentration was used as the vehicle control. Duplicate wells were dosed for each compound. On day 8, apical media pH was measured by pH electrode, to determine the ability of example compounds to produce sustained inhibition of NHE3 activity in a human monolayer culture system by preventing proton secretion into the apical compartment.
Human duodenum organoids were cultured in WENRNAS (Wnt, EGF, noggin, R-spondin1, Nicotinamide, A83-01, SB202190) and typically grown for 7-12 days before being used to plate monolayer cultures. On day 0, organoid cultures embedded in Matrigel were treated with TrypLE Express to break organoids into small pieces and/or single cells. The cells were resuspended to 0.5×10^6 cells/mL in SBM containing WENRAY (Wnt, EGF, noggin, R-spondin1, A83-01, Y-27632). Following this step, 200 μL of cell suspension was plated into the apical side of a 24-well Transwell (100,000 cells/well) and 600 μL of SBM with WENRAY was added to the basolateral side. Duodenum cells were differentiated with ENA (EGF, noggin, A83-01) on day 3. The color of apical compartment turns from pink or orange to yellow due to the increase in NHE3 expression after differentiation.

SMILES strings stand for the structures.

As usually defined, the inhibition is the percentage by which the read-out fell short of the control. With `N#Cc1cc(Cl)cc2c1C[C@H](N1CCNCC1)[C@H]2Oc1ccc(S(=O)(=O)NCCOCCOCCNC(=O)NCCCCNC(=O)NCCOCCOCCNS(=O)(=O)c2ccc(O[C@H]3c4cc(Cl)cc(C#N)c4C[C@@H]3N3CCNCC3)c(F)c2)cc1F` [Example 43, 3-[2-(2-[2-[(4-[[(1S,2S)-6-Chloro-4-cyano-2-(piperazin-1-yl)-2,3-dihydro-1H-inden-1-yl]oxy]-3-fluorobenzene)sulfonamido]ethoxy]ethoxy)ethyl]-1-[4-([[2-(2-[2-[(4-[[(1S,2S)-6-chloro-4-cyano-2-(piperazin-1-yl)-2,3-dihydro-1H-inden-1-yl]oxy]-3-fluorobenzene)sulfonamido]ethoxy]ethoxy)ethyl]carbamoyl]amino)butyl]urea; bis(trifluoroacetic acid)], the “% inhibition” value in experiment [1] is “C (>70%)”. For the same compound, the pIC50 entry in experiment [1] (0-30 μM test compound) is on record as “C (NHE3 pIC50 > 7)”. Moreover, the inhibition at 1 µM in experiment [2] is over 70%.
In the same order, the values of `Cc1cc(S(=O)(=O)N2CC[C@@H](COCCOCCNC(=O)NCCCCNC(=O)NCCOCCOC[C@@H]3CCN(S(=O)(=O)c4ccc(O[C@H]5c6cc(Cl)cc(Cl)c6C[C@@H]5N(C)C)c(C)c4)C3)C2)ccc1O[C@H]1c2cc(Cl)cc(Cl)c2C[C@@H]1N(C)C` [Example 45, 3-[2-(2-[[(3R)-1-[(4-[[(1S,2S)-4,6-Dichloro-2-(dimethylamino)-2,3-dihydro-1H-inden-1-yl]oxy]-3-methylbenzene)sulfonyl]pyrrolidin-3-yl]methoxy]ethoxy)ethyl]-1-[4-([[2-(2[[(3R)-1-[(4-[[(1S,2S)-4,6-dichloro-2-(dimethylamino)-2,3-dihydro-1H-inden-1-yl]oxy]-3-methylbenzene)sulfonyl]pyrrolidin-3-yl]methoxy]ethoxy)ethyl]carbamoyl]amino)butyl]urea; bis(trifluoroacetic acid)] are “C (>70%)”, “C (NHE3 pIC50 > 7)” and over 70%.
For `Cc1cc(S(=O)(=O)N2CC[C@@H](COc3ccnc(CNC(=O)NCCCCNC(=O)NCc4cc(OC[C@@H]5CCN(S(=O)(=O)c6ccc(O[C@H]7c8cc(Cl)cc(Cl)c8C[C@@H]7N(C)C)c(C)c6)C5)ccn4)c3)C2)ccc1O[C@H]1c2cc(Cl)cc(Cl)c2C[C@@H]1N(C)C` [Example 49, 3-[(4-[[(3R)-1-[(4-[[(1S,2S)-4,6-Dichloro-2-(dimethylamino)-2,3-dihydro-1H-inden-1-yl]oxy]-3-methylbenzene)sulfonyl]pyrrolidin-3-yl]methoxy]pyridin-2-yl)methyl]-1-[4-([[(4-[[(3R)-1-[(4-[[(1S,2S)-4,6-dichloro-2-(dimethylamino)-2,3-dihydro-1H-inden-1-yl]oxy]-3-methylbenzene)sulfonyl]pyrrolidin-3-yl]methoxy]pyridin-2-yl)methyl]carbamoyl]amino)butyl]urea], in that order: “C (>70%)”, “B (NHE3 pIC50 6-7)” and over 70%.
For `Cc1cc(S(=O)(=O)N[C@H]2CCN(CCOCCNC(=O)NCCCCNC(=O)NCCOCCN3CC[C@H](NS(=O)(=O)c4ccc(O[C@H]5c6cc(Cl)cc(Cl)c6C[C@@H]5N(C)C)c(C)c4)C3)C2)ccc1O[C@H]1c2cc(Cl)cc(Cl)c2C[C@@H]1N(C)C` [Example 52, 3-(2-[2-[(3S)-3-[(4-[[(1S,2S)-4,6-Dichloro-2-(dimethylamino)-2,3-dihydro-1H-inden-1-yl]oxy]-3-methylbenzene)sulfonamido]pyrrolidin-1-yl]ethoxy]ethyl)-1-(4-[[(2-[2-[(3S)-3-[(4-[[(1S,2S)-4,6-dichloro-2-(dimethylamino)-2,3-dihydro-1H-inden-1-yl]oxy]-3-methylbenzene)sulfonamido]pyrrolidin-1-yl]ethoxy]ethyl)carbamoyl]amino]butyl)urea], in that order: “C (>70%)”, “C (NHE3 pIC50 > 7)” and over 70%.
Take `Cc1cc(S(=O)(=O)N[C@@H]2CCN(CCOCCNC(=O)NCCCCNC(=O)NCCOCCN3CC[C@@H](NS(=O)(=O)c4ccc(O[C@H]5c6cc(Cl)cc(C#N)c6C[C@@H]5N(C)C)c(C)c4)C3)C2)ccc1O[C@H]1c2cc(Cl)cc(C#N)c2C[C@@H]1N(C)C` [Example 55, 3-(2-[2-[(3R)-3-[(4-[[(1S,2S)-6-Chloro-4-cyano-2-(dimethylamino)-2,3-dihydro-1H-inden-1-yl]oxy]-3-methylbenzene)sulfonamido]pyrrolidin-1-yl]ethoxy]ethyl)-1-(4-[[(2-[2-[(3R)-3-[(4-[[(1S,2S)-6-chloro-4-cyano-2-(dimethylamino)-2,3-dihydro-1H-inden-1-yl]oxy]-3-methylbenzene)sulfonamido]pyrrolidin-1-yl]ethoxy]ethyl)carbamoyl]amino]butyl)urea]: the “% inhibition” value in experiment [1] is “C (>70%)”. This compound displayed an inhibition at 1 µM in experiment [2] of 50 to 70%.
On to `Cc1cc(S(=O)(=O)N[C@H]2CCN(CCOCCNC(=O)NCCCCNC(=O)NCCOCCN3CC[C@H](NS(=O)(=O)c4ccc(O[C@H]5c6cc(Cl)cc(Cl)c6C[C@@H]5N(C)C)c(C)c4)C3=O)C2=O)ccc1O[C@H]1c2cc(Cl)cc(Cl)c2C[C@@H]1N(C)C` [Example 91, 1-(2-[2-[(3S)-3-[(4-[[(1S,2S)-4,6-Dichloro-2-(dimethylamino)-2,3-dihydro-1H-inden-1-yl]oxy]-3-methylbenzene)sulfonamido]-2-oxopyrrolidin-1-yl]ethoxy]ethyl)-3-(4-[[(2-[2-[(3S)-3-[(4-[[(1S,2S)-4,6-dichloro-2-(dimethylamino)-2,3-dihydro-1H-inden-1-yl]oxy]-3-methylbenzene)sulfonamido]-2-oxopyrrolidin-1-yl]ethoxy]ethyl)carbamoyl]amino]butyl)urea], for which the “% inhibition” value in experiment [1] was “C (>70%)”. In experiment [1] (0-30 μM test compound), the pIC50 result was “C (NHE3 pIC50 > 7)”. The same compound showed an inhibition at 1 µM in experiment [2] of over 70%.
Usually IC50 stands for the concentration needed to halve the response being measured. A lower IC50 goes with higher potency. Take `O=C(NCCCCNC(=O)NCCOCCN1CC[C@@H](NS(=O)(=O)c2ccc(O[C@H]3c4cc(Cl)cc(Cl)c4C[C@@H]3N3CCNCC3)c(F)c2)C1)NCCOCCN1CC[C@@H](NS(=O)(=O)c2ccc(O[C@H]3c4cc(Cl)cc(Cl)c4C[C@@H]3N3CCNCC3)c(F)c2)C1` [Example 105, 4-([(1S,2S)-4,6-Dichloro-2-(piperazin-1-yl)-2,3-dihydro-1H-inden-1-yl]oxy)-N—[(R)-1-(20-[(R)-3-([4-([(1S2S)-4,6-dichloro-2-(piperazin-1-yl)-2,3-dihydro-1H-inden-1-yl]oxy)-3-fluorophenyl]sulfonamido)pyrrolidin-1-yl]-7,14-dioxo-3,18-dioxa-6,8,13,15-tetraazaicosyl)pyrrolidin-3-yl]-3-fluorobenzenesulfonamide; tetra(trifluoroacetate)]: the “% inhibition” value in experiment [1] is listed as “C (>70%)”. Moreover, the IC50 in experiment [1] (0-30 μM test compound) is under 100 nM. In experiment [2], the inhibition at 1 µM was over 70%.

For the origin of these results see patent US11242337B2, “Compounds useful for treating gastrointestinal tract disorders” (Ardelyx, Inc., priority 2017, dated 2022).
